Laboratory results as given in patent US4622388A, “Des-2-serine, 3 asparagine-calcitonin” (Armour Pharmaceutical Company, priority 1985, dated 1986).
Positions of bridges follow the written chain, without caps; N, C: chain ends. Residues, ends and D or L forms follow the SMILES beside them.

Tests used:
[1] = test system: serum calcium concentration; test: Biological assay of calcitonin analogs in vivo: reduction of serum calcium concentration, 2x2 parallel line assay; set-up: species or system Rats
Experimental: The biological potency of des-2-serine, 3-asparagine-salmon calcitonin was determined by comparing the reduction of serum calcium concentration which followed administration by graded doses of des-Ser^2, […] -SCT and synthetic salmon calcitonin standard. Rats were divided into four groups of seven animals, and each group was assigned at random to a dose of standard or test solution. Low and high doses were chosen from the linear portion of the dose-response curve. For the salmon calcitonin standard, the values were 0.7 and 2.1 ng. peptide/100 g. body weight (BW). This dose approximates 3 and 9 MU/100 g. BW. Peptides were given by subcutaneous injection (0.2 ml/100 g. BW) and blood was withdrawn 1 hour later for serum calcium determination. Sera are processed and analyzed within two hours of collection. […]. Results were analyzed by a 2×2 parallel line assay [Gaddum, J. H. J. Pharm. Pharmacol., 6, 345 (1953)]. The standard salmon calcitonin used was independently determined to contain greater than 4,000 IU/mg. des-Ser^2, Asn^3 -SCT assayed at 4350 IU/mg.

[2] = literature value, Monikawa et al.; cited from earlier work

Molecule	hypocalcemic potency [2]	other results
CC(C)C[C@H](NC(=O)[C@H](CCCCN)NC(=O)CNC(=O)[C@H](CC(C)C)NC(=O)[C@@H](NC(=O)[C@@H]1CSSC[C@H](N)C(=O)N[C@@H](CO)C(=O)N[C@@H](CC(N)=O)C(=O)N[C@@H](CC(C)C)C(=O)N[C@@H](CO)C(=O)N[C@@H]([C@@H](C)O)C(=O)N1)C(C)C)C(=O)N[C@@H](CO)C(=O)N[C@@H](CCC(N)=O)C(=O)N[C@@H](CCC(=O)O)C(=O)N[C@@H](CC(C)C)C(=O)N[C@@H](Cc1c[nH]cn1)C(=O)N[C@@H](CCCCN)C(=O)N[C@@H](CC(C)C)C(=O)N[C@@H](CCC(N)=O)C(=O)N[C@H](C(=O)N[C@@H](Cc1ccc(O)cc1)C(=O)N1CCC[C@H]1C(=O)N[C@@H](CCCNC(=N)N)C(=O)N[C@H](C(=O)N[C@@H](CC(N)=O)C(=O)N[C@H](C(=O)NCC(=O)N[C@@H](CO)C(=O)NCC(=O)N[C@H](C(=O)N1CCC[C@H]1C(N)=O)[C@@H](C)O)[C@@H](C)O)[C@@H](C)O)[C@@H](C)O [standard salmon calcitonin, Salmon calcitonin]		potency of the standard salmon calcitonin, independently determined ([1]; standard used in the assay, independently determined): greater than 4,000 IU/mg
eel calcitonin [synthetic eel calcitonin]	around 4300 IU/mg.	
CC(C)C[C@H](NC(=O)[C@H](CCCCN)NC(=O)CNC(=O)[C@H](CC(C)C)NC(=O)[C@@H](NC(=O)[C@@H]1CSSC[C@H](N)C(=O)N[C@@H](CC(C)C)C(=O)N[C@@H](CO)C(=O)N[C@@H]([C@@H](C)O)C(=O)N1)C(C)C)C(=O)N[C@@H](CO)C(=O)N[C@@H](CCC(N)=O)C(=O)N[C@@H](CCC(=O)O)C(=O)N[C@@H](CC(C)C)C(=O)N[C@@H](Cc1c[nH]cn1)C(=O)N[C@@H](CCCCN)C(=O)N[C@@H](CC(C)C)C(=O)N[C@@H](CCC(N)=O)C(=O)N[C@H](C(=O)N[C@@H](Cc1ccc(O)cc1)C(=O)N1CCC[C@H]1C(=O)N[C@@H](CCCNC(=N)N)C(=O)N[C@H](C(=O)N[C@@H](CC(N)=O)C(=O)N[C@H](C(=O)NCC(=O)N[C@@H](CO)C(=O)NCC(=O)N[C@H](C(=O)N1CCC[C@H]1C(N)=O)[C@@H](C)O)[C@@H](C)O)[C@@H](C)O)[C@@H](C)O [des-Ser^2, Asn^3 -SCT, des-2-serine, 3-asparagine-salmon calcitonin] (H-CLSTCVLGKLSQELHKLQTYPRTNTGSGTP-NH2; disulfide 1-5)		biological potency (reduction of serum calcium concentration) ([1]; rats, subcutaneous injection, blood withdrawn 1 hour later, vs synthetic salmon calcitonin standard): 4350 IU/mg
(1,7-α-L-amino-suberic acid)eel calcitonin	about 3400 IU/mg.	
